“Also recorded” adds a separate entry of the source. Where two headings read alike, the source gives them in different places.
Tests used:
[1] = target: T1, rNaV1.4 expressed in CHO cells (Rattus norvegicus, UniProt P15390); assay: Activation: current-voltage (I-V) and conductance-voltage (G-V) relationship, whole-cell recording; format: cell-based
T1 construct: expressed in transfected cells; host or cells: CHO cells
Experimental: To determine if the shift in I-V relationship is affected by the aromaticity of the aconitine C14 benzoate, current-voltage relationships were recorded for control cells expressing NaV, those that had been modified by aconitine, and those that had been modified by aconitine C14-cyclohexanoate 4.8d. For the modified channels, solutions of 50 μM concentration of the respective toxins were perfused onto the cells, and then depolarizing pulses were applied until a steady state current was observed, generally requiring about 1000 pulses. At that time, current-voltage relationships were again recorded. […] A shift towards hyperpolarizing potentials is clearly observed in both cases. Currents recorded at −50 mV are highlighted for all three experiments.
To determine the effect on current-voltage (I-V) relationship of the aconitine derivatives, whole cell currents were recorded in cells expressing NaV in the presence of aconitine derivatives. Control I-V plots were recorded with unmodified NaV1.4, to which were compared NaV channels modified by aconitine as well as by selected analogs. For the modified channels, solutions of the respective toxins were perfused onto the cells, and then depolarizing pulses were applied until a steady state current was observed, generally requiring about 1000 pulses. A sequence of test pulses was then recorded to determine the current-voltage relationships (using a step protocol in which CHO cells were depolarized for 10 ms from a holding potential of −100 mV to a range of potentials from −95 mV to +30 mV in 5 or 10 mV increments; peak currents were normalized to the maximum peak current and plotted against voltage).

[2] = target: T1, rNaV1.4 expressed in CHO cells; assay: Na+ current block at steady state, whole-cell patch clamp with pulse trains; format: cell-based; conditions: for Current measured at 20 μM (%) / Current measured at 75 μM (%): before wash-off; for depolarizing pulses required to reach steady-state block: 10 Hz pulse trains
Experimental: Binding of aconitine to NaV is use-dependent and is known to result both in a left shift of the current-voltage (I-V) relationship and in partial block of the channel. […] To determine whether aconitine binding is reversible, two experiments were designed. First, as block by aconitine is known to be use dependent, peak current was measured as a function of pulse number in the presence of two different concentrations of aconitine. Since aconitine binds preferentially to the open state of the sodium channel, a pulse train was applied sequentially with a control pulse used to record peak current. The pulse train consisted of a series of 50 depolarizing pulses (from −100 mV holding potential to 0 mV, 10 ms duration) applied at 10 Hz frequency, while the control pulse consisted of a single depolarizing pulse (from −100 mV holding potential to 0 mV test potential, 10 ms duration).
Pulse trains of 10 Hz frequency and control pulses were applied sequentially to cells expressing rNaV1.4, and currents elicited from the control pulse were recorded after each pulse train. This process was repeated until the current elicited from the control pulse had reached a steady state and was no longer decreasing with each additional pulse train. If block were irreversible, this steady state current would be expected to be independent of toxin concentration—the toxin would not be able to dissociate from its receptor, and the number of toxin molecules is much greater than the number of sodium channels (assuming a 100 μL chamber containing 1000 CHO cells, each expressing 10,000 sodium channels, at 50 μM concentration toxin molecules outnumber receptors by a factor of 3×10^8:1), therefore, all receptors would eventually reach the bound state.
Block by aconitine is known to be use-dependent, therefore the use-dependence of the C14 derivatives of aconitine was evaluated. Peak Na current was measured as a function of pulse number in the presence of different concentrations of the molecules. […] Since aconitine binds preferentially to the open state of the sodium channel, a pulse train was applied sequentially with a control pulse used to record peak current. The pulse train consisted of a series of 50 depolarizing pulses (from −100 mV holding potential to 0 mV, 10 ms duration) applied at 10 Hz frequency, while the control pulse consisted of a single depolarizing pulse (from −100 mV holding potential to 0 mV test potential, 10 ms duration).
Pulse trains of 10 Hz frequency and control pulses were applied sequentially to CHO cells expressing rNaV1.4, and currents elicited from the control pulse were recorded after each pulse train. This process was repeated until the current elicited from the control pulse had reached a steady state and was no longer decreasing with each additional pulse train. If block were irreversible, this steady state current would be expected to be independent of toxin concentration—the toxin would not be able to dissociate from its receptor, and the number of toxin molecules is much greater than the number of sodium channels, therefore, all receptors would eventually reach the bound state.
The ability of the synthesized aconitine derivatives to block NaV channels was evaluated with patch-clamp experiments in the whole-cell configuration on CHO cells expressing rNaV1.4 heterologously. A buffer solution containing the toxin was applied to the cells, whole-cell Na^+ currents were recorded until the decreasing current reached a steady-state (300 to 3000 pulses, depending on the molecules and concentrations). The peak Na^+ currents were measured with a depolarizing test pulse (from −100 mV holding potential to 0 mV test potential, 10 ms duration).

[3] = target: T1, rNaV1.4 expressed in CHO cells; format: cell-based; conditions: for reversibility of binding upon wash-off: wash-off experiments, Table 3 concentrations
Experimental: […] […] It is noteworthy that little or no increase in current was observed during wash off when no depolarizing pulses were applied and peak current was measured as a function of time.
Since the molecules bind to the open-state of the Nav channel their release also requires activation pulses. In typical experiments, buffered external solution was perfused and a pulse train sequence was applied to the patch-clamp until the current reached a steady-state for at least two minutes.

[4] = target: T1, rNaV1.4 expressed in CHO cells; assay: Steady-state inactivation, whole-cell recording, Boltzmann fit; format: cell-based
Experimental: . The channels were modified by perfusing the cells with buffered solution containing aconitine at the given concentrations and then simple pulses (10 ms pulses to 0 mV from −100 mV holding potential) were recorded until the currents leveled to a steady value (typically ˜1000 pulses). Steady-state fast inactivation of the current was then determined by delivering 500 ms conditioning pulses to potentials ranging from −130 to −11 mV (7 my increments) immediately followed by a 10 ms test pulse to 0 mV to test the available current. The peak current measured during the test pulse was normalized to the maximum peak current recorded in the conditioning pulses. […] Midpoint voltage V0.5 represents the membrane potential at which half maximum current is observed; slope factor at midpoint k quantifies the rate at which the inactivation response occurs.

NaV1.8 = NaV1.8 (Homo sapiens, UniProt Q9Y5Y9); conditions: cited from earlier work
NaV1.2 = NaV1.2 (Homo sapiens, UniProt Q99250); conditions: cited from earlier work
Sequence of NaV1.2 (Q99250 whole entry, looked up): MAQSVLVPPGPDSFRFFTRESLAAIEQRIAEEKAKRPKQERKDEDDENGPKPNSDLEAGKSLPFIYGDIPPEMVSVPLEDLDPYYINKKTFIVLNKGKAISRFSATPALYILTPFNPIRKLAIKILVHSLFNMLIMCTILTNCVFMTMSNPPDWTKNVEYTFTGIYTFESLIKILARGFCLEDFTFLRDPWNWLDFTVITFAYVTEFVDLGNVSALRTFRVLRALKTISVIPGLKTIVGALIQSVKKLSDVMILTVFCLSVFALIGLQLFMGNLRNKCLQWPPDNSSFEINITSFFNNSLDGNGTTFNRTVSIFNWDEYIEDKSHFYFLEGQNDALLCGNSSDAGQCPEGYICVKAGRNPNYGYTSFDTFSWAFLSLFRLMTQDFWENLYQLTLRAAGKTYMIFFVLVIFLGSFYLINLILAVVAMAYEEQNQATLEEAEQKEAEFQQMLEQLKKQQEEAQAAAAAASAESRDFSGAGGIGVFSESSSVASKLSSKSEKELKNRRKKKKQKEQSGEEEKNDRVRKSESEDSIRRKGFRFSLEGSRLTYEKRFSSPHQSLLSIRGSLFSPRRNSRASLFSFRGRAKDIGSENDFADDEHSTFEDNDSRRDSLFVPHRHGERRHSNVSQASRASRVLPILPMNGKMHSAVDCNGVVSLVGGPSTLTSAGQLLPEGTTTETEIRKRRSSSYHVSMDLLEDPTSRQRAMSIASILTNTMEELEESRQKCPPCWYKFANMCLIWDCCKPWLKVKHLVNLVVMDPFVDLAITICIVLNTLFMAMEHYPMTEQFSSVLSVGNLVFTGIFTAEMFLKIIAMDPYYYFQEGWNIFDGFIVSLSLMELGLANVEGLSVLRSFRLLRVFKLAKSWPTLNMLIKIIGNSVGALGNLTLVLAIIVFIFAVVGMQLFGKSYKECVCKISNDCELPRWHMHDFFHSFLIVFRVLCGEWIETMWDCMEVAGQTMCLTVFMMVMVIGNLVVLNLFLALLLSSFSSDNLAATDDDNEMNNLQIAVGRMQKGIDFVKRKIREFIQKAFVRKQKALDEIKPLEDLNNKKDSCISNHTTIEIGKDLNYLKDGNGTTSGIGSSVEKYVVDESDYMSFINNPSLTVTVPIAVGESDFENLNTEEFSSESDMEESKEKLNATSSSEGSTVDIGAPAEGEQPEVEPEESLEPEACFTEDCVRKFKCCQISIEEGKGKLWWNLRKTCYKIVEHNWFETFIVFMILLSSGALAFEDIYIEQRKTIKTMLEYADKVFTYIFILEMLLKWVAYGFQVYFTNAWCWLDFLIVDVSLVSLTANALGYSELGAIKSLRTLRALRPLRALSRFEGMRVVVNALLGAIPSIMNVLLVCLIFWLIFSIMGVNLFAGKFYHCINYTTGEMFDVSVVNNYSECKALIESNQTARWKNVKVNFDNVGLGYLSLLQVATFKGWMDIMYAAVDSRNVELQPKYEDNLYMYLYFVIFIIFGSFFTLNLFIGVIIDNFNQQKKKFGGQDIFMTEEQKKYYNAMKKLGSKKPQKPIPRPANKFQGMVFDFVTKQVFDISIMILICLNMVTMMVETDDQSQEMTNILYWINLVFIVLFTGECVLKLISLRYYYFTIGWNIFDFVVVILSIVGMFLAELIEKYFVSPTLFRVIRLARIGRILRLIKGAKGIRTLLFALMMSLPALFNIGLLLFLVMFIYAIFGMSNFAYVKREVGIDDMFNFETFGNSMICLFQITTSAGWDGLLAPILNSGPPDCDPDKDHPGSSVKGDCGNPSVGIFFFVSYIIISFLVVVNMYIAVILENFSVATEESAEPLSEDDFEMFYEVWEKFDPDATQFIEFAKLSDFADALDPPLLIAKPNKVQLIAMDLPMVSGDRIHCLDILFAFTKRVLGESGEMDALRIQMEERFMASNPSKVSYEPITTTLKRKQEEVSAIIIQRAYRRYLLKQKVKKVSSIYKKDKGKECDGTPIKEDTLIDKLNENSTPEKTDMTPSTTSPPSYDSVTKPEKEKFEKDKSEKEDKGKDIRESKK

T1 sequence (P15390 whole entry): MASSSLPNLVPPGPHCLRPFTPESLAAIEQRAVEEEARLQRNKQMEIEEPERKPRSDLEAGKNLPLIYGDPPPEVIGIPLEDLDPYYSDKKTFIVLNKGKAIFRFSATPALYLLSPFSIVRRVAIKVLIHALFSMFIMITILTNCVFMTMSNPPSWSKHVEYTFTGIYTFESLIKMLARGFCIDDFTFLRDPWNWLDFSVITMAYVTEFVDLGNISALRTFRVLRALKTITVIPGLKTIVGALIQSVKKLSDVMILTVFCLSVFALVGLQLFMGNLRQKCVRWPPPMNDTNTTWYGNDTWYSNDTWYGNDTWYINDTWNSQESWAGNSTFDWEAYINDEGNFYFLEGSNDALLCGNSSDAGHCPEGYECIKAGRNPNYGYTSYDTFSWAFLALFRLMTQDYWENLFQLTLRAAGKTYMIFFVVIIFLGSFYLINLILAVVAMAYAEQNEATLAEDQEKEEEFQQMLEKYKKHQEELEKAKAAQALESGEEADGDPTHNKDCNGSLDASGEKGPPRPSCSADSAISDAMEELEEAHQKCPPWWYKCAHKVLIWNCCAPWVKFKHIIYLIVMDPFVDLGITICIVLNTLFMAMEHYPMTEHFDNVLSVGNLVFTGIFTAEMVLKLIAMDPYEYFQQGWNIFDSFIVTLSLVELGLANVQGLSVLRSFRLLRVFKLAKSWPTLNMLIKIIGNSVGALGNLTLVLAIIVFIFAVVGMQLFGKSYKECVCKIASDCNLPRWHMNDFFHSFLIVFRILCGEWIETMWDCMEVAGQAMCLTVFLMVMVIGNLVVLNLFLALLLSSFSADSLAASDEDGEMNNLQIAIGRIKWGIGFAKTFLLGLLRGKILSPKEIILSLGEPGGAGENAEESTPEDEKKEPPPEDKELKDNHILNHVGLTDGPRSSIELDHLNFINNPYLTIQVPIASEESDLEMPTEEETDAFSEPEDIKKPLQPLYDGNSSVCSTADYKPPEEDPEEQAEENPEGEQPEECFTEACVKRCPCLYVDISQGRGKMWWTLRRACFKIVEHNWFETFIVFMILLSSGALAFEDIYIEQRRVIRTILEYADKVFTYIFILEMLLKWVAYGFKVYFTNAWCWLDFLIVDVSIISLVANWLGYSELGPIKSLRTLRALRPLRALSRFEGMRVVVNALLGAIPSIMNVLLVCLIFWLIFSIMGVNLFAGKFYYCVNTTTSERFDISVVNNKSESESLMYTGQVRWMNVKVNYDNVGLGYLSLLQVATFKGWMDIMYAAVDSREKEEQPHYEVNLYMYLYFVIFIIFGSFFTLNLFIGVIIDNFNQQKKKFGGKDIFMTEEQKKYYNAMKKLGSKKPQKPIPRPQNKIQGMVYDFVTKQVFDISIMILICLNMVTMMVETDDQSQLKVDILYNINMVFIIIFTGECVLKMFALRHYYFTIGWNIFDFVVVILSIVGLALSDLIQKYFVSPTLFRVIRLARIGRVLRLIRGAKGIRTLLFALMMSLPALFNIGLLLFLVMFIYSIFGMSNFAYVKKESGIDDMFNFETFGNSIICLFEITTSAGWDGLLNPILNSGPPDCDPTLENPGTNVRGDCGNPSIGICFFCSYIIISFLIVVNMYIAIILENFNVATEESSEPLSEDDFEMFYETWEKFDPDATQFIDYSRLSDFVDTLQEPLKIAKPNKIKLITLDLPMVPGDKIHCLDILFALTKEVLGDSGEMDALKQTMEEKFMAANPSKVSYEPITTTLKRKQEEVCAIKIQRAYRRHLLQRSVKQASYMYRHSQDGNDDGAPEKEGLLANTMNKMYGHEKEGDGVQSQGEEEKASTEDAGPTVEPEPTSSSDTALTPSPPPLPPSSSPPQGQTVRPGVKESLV

CCN1CC2(COC)C3[C@H](OC)C4C1C3(C1C[C@@]3(O)[C@H](OC(=O)c5cc6ccccc6oc5=O)C1[C@]4(OC(C)=O)[C@@H](O)[C@@H]3OC)[C@@H](OC)C[C@H]2O (stereo partly drawn) [4.8g]
Activation V0.5 (mV) ([1]; 75 μM): −36 mV
Activation hg ([1]; 75 μM): 8.9
concentration required to achieve the current levels observed with 20 μM aconitine [2]: 75 µM
% Remaining current after reaching steady-state binding ([2]; 20 μM): 79%
peak current blocked at steady state ([2]; 20 μM): 21%
Current measured at 20 μM (%) ([2]; 20 μM): 79%
depolarizing pulses required to reach steady-state block ([2]; 20 μM): over 2500 pulses
% Remaining current after reaching steady-state binding ([2]; 75 μM): 23%
peak current blocked at steady state ([2]; 75 μM): 77%
Current measured at 75 μM (%) ([2]; 75 μM): 23%
depolarizing pulses required to reach steady-state block ([2]; 75 μM): over 3000 pulses
Current after wash-off (%) ([3]; after wash-off of 20 μM): 83%
Current after wash-off (%) ([3]; after wash-off of 75 μM): 31%
reversibility of binding upon wash-off [3]: did not restore substantial current
Steady-state inactivation V0.5 (mV) ([4]; 75 μM): −75.6 mV
Steady-state inactivation k (slope factor at midpoint) ([4]; 75 μM): 11.6
steady-state inactivation V0.5 ([4]; concentration not given): −76 mV
shift of steady-state inactivation V0.5 compared to the unmodified NaV channel ([4]; toward hyperpolarized potentials, concentration not given): 23 mV

NC1=N[C@H](O)[C@H]2[C@H]3O[C@]4(O)O[C@@H]([C@@H](O)[C@@]2(N1)[C@@H]4O)[C@]3(O)CO [TTX, tetrodotoxin]
TTX potency (NaV1.8): 60 µM
TTX potency (NaV1.2): 0.012 µM

CCN1CC2(COC)C3C(OC)C4C1C3(C1C[C@@]3(O)[C@H](OC(=O)c5ccccc5N=[N+]=[N-])[C@@H]1[C@]4(OC(C)=O)[C@@H](O)[C@@H]3OC)[C@@H](OC)C[C@H]2O (stereo partly drawn) [4.8f]
% Remaining current after reaching steady-state binding ([2]; 50 μM): 22%

CCN1CC2(COC)C3C(OC)C4C1C3(C1C[C@@]3(O)[C@H](OC(=O)c5ccc6ccccc6c5)[C@@H]1[C@]4(OC(C)=O)[C@@H](O)[C@@H]3OC)[C@@H](OC)C[C@H]2O (stereo partly drawn) [4.8c]
Activation V0.5 (mV) ([1]; 5 μM): −23.1 mV
Activation hg ([1]; 5 μM): 13.1
% Remaining current after reaching steady-state binding ([2]; 5 μM): 38%
% Remaining current after reaching steady-state binding ([2]; 20 μM): 5%
peak current blocked at steady state ([2]; 20 μM): around 95%
Current measured at 20 μM (%) ([2]; 20 μM): 3%
depolarizing pulses required to reach steady-state block ([2]; 20 μM): 800 pulses
peak current blocked at steady state ([2]; 73 μM): over 97%
Current measured at 75 μM (%) ([2]; 73 μM (footnote b)): 3^b %
% Remaining current after reaching steady-state binding ([2]; 73 μM (footnote c, 75 μM column)): 3^c %
depolarizing pulses required to reach steady-state block ([2]; 73 μM): ≤ 300 pulses
% Remaining current after reaching steady-state binding ([2]; 200 μM): 3%
current observed at steady state ([2]; concentrations of 20 μM and above): ≤ 5%
Current after wash-off (%) ([3]; after wash-off of 20 μM): 4%
Current after wash-off (%) ([3]; after wash-off of 73 μM (footnote b)): 3^b %
reversibility of binding upon wash-off [3]: did not restore substantial current; also recorded: completely irreversible

CCN1CC2(COC)C3C(OC)C4C1C3(C1C[C@@]3(O)[C@H](OC(=O)C5CCCCC5)[C@@H]1[C@]4(OC(C)=O)[C@@H](O)[C@@H]3OC)[C@@H](OC)C[C@H]2O (stereo partly drawn) [4.8d]
shift of voltage of half-activation (V0.5) towards the hypo-polarization [1]: more than 20 mV
effect on activation threshold ([1]; 20 μM): did not significantly shift the activation threshold
hypopolarized shift of potential of maximum current ([1]; 20 μM): 10 mV
membrane potential at which maximum current is observed ([1]; 20 μM): 0 mV
Activation V0.5 (mV) ([1]; 21 μM): 1.3 mV
Activation hg ([1]; 21 μM): 15.4
current at −50 mV ([1]; 50 μM, after about 1000 pulses, no current in control cells): substantial currents; also recorded: more pronounced effect in this respect than the natural product
% Remaining current after reaching steady-state binding ([2]; 5 μM): 82%
peak current blocked at steady state ([2]; 20 μM): 85%
depolarizing pulses required to reach steady-state block ([2]; 20 μM): around 600 pulses
Current measured at 20 μM (%) ([2]; 21 μM (footnote c)): 15^c %
% Remaining current after reaching steady-state binding ([2]; 50 μM): 10%
peak current blocked at steady state ([2]; 50 μM): 90%
depolarizing pulses required to reach steady-state block ([2]; 50 μM): Approximately 1000 pulses
% Remaining current after reaching steady-state binding ([2]; 200 μM): 6%
peak current blocked at steady state ([2]; 200 μM): 94%
depolarizing pulses required to reach steady-state block ([2]; 200 μM): 200 pulses
Current after wash-off (%) ([3]; after wash-off of 20 μM): 79%
Current after wash-off (%) ([3]; after wash-off of 21 μM (footnote c)): 79^c %
effect on threshold for inactivation ([4]; 20 μM): shifted the threshold for inactivation towards higher potentials
Steady-state inactivation V0.5 (mV) ([4]; 21 μM): −53.1 mV
Steady-state inactivation k (slope factor at midpoint) ([4]; 21 μM): 8.1
slope factor k of steady-state inactivation ([4]; concentration not given, unmodified ˜6): ~8

— patent US9085536B2, “Aconitine compounds, compositions, uses, and preparation thereof” (priority 2011, dated 2015)
